One data set has as its system S. aureus (MRSA) MW2. Briefly: Minimal inhibitory concentration (MIC) assay, micro-dilution. The data set is classed as cell-based. The settings on record: for MIC: Example 5, MRSA MW2. The source says: Bacterial strains, growth conditions, and persister isolation. Methicillin-resistant S. aureus strains, MW2 BAA-1707, ATCC 33591, and JE2, methicillin-susceptible S. aureus strains, NCTC 8325, Newman, and ATCC 29213, vancomycin-resistant S. aureus strain, VRS1, Enterococcus faecium E007, vancomycin-resistant E. faecium strains, C68,^7 WB312, and WC196, Klebsiella pneumoniae WGLW2 (BEI Resources, Manassas, Va., USA), Acinetobacter baumannii ATCC 17978, Pseudomonas aeruginosa PA14, and Enterobacter aerogenes ATCC 13048 were used to test antimicrobial activity (Table 1). S. aureus strains were grown in tryptic soy broth (TSB) (BD, Franklin Lakes, N.J., USA), and E. faecium was grown in brain-heart infusion (BHI) broth (BD, Franklin Lakes, N.J., USA) at 37° C. K. pneumoniae, A. baumannii, P. aeruginosa, and E. aerogenes were grown in Luria Bertani (LB) broth (BD, Franklin Lakes, N.J., USA) at 37° C.
Minimal inhibitory concentration (MIC) assay. The MICS of antibiotics were determined by the standard micro-dilution method recommended by the Clinical and Laboratory Standards Institute. MIC assays were conducted in biological triplicate.
In general terms: In broth dilution the organism is exposed to a series of concentrations in liquid medium.

In the next data set the test system is HKC-8. Briefly: Cytotoxicity (WST-1). The data set is classed as cell-based. To be noted: 32 μg/ml. The method, then:
(§1) Cytotoxicity. […] HepG2 and HKC-8 cells were grown in Dulbecco's modified Eagle F-12 media mixed 1:1 with Ham's F-12 (DMEM/F-12, Life Technologies, Carlsbad, Calif., USA) supplemented with 10% FBS and 4 mM L-glutamine at 37° C. in 5% CO2. For cytotoxicity assays, HepG2 or HKC-8 was cultured in 96-well plates in 100 μL/well of the proper media to reach 70-80% confluence. The cells were then treated with a range of concentrations of nTZDpa or its analogs for 72 h. 10 μL of WST-1 (Roche, Mannheim, Germany) was added per well for the last 4 h of the 72 h period. WST-1 reduction was measured at absorbance 450 nm. The percent […] relative to that of the no-treatment control was calculated. The assay was carried out in biological triplicate.

A further data set relates to HepG2. Put plainly: Cytotoxicity (WST-1). To be noted: 32 μg/ml. The data set is classed as cell-based. As to the method: as §1
Another data set relates to human erythrocytes. Put plainly: Human blood hemolysis. The data set is classed as cell-based. The settings on record: 32 μg/ml. As to the method: Human blood hemolysis. Hemolytic activity was evaluated as described in a previous study. Briefly, 100 μL of 4% human erythrocytes (Rockland Immunochemicals, Limerick, Pa., USA) was added to 100 μL of 2-fold serial dilutions of compounds in PBS, 0.2% DMSO (negative control), or 2% Triton-X 100 (positive control) in a 96-well plate. The 96-well plate was incubated at 37° C. for 1 h and then centrifuged at 500× g for 5 min. 50 μL of the supernatant was transferred to a fresh 96-well plate, and absorbance of supernatants was measured at 540 nm. Percent hemolysis was calculated using the following equation: (A540 nm of compound treated sample−A540 nm of 0.1% DMSO treated sample)/(A540 nm of 1% Triton X-100 treated sample−A540 nm of 0.1% DMSO treated sample)×100. HC50 (concentration of a compound causing 50% hemolysis) was determined using SigmaPlot 10.0 (Systat Software Inc., San Jose, Calif., USA).

Another data set concerns MRSA MW2. Briefly: SYTOX Green membrane permeability assay. The data set is classed as cell-based, S. aureus. The method, then:
SYTOX Green membrane permeability assay. […] The washed cells were adjusted to OD600=0.4 with PBS. SYTOX Green (Molecular Probes, Waltham, Mass., USA) was added to 10 mL of the diluted bacterial suspension to a final concentration of 5 μM and incubated for 30 min at room temperature in the dark. 50 μL of the bacteria/SYTOX Green suspension was mixed with 50 μl of PBS containing twice the desired concentrations of compounds in black, clear-bottom, 96-well plates (Corning no. 3904). Fluorescence was measured at room temperature using a spectrophotometer (SpectraMax M2, Molecular Devices), with excitation and emission wavelengths of 485 nm and 525 nm, respectively. All experiments were conducted in biological triplicate.

Molecules are shown by their SMILES. Values after ≈ are worked out from the molar mass of the structure shown. Read-outs that look alike come from different tables or passages of the source.

The text below walks through data of patent US11690824B2, “Antibacterial compounds” (THE GENERAL HOSPITAL CORPORATION, priority 2018, dated 2023).

As a reminder, the MIC is the least concentration at which growth counts as inhibited. Consider `O=C(O)c1c(Sc2ccccc2)c2ccc(Cl)cc2n1Cc1ccc(Cl)cc1` [Analog 2a], for which, in the data set with S. aureus (MRSA) MW2, the MIC entry is “same MIC”. For the same compound, the “cell death of HKC-8” value in the data set with HKC-8 is “did not display a significant level of cytotoxicity”. Further, in the data set on HepG2, the “cell death of HepG2” value was “did not display a significant level of cytotoxicity”. In the data set on human erythrocytes, the “hemolysis of human erythrocytes” value was “did not significantly cause hemolysis”.

`COc1c(C(=O)O)n(Cc2ccc(Cl)cc2)c2ccc(Cl)cc12` [Compound S14, 5-chloro-1-(4-chlorobenzyl)-3-methoxy-1H-indole-2-carboxylic acid]: the “concentration inducing SYTOX Green fluorescence” value in the data set on MRSA MW2 was found to be 64 µg/mL. In addition, the MIC with S. aureus (MRSA) MW2 (Staphylococcus aureus, read-out: MIC) worked out at 32 µg/mL (≈ 91.4 µM). The “antibiotic activity / potency relative to nTZDpa” value in the data set on S. aureus (MRSA) MW2 (growing S. aureus cells) is listed as “reduction of antibiotic activity”.
